Measured values published in patent US7880010B2, “Crystalline forms of a dimethylphenyl compound” (Theravance, Inc., priority 2006, dated 2011).
pEC50, pKi: −log10 of the molar value.

Assays:
[1] = biological target: T1, human β2 adrenergic receptor (Homo sapiens, UniProt P07550); assay: Whole-cell cAMP Flashplate assay, heterologously expressed receptor; type: cell-based; conditions: HEK-293 cells
T1 construct: expressed in transfected cells; host or cells: HEK-293
Method: (§1) cAMP assays were performed in a radioimmunoassay format using the Flashplate Adenylyl Cyclase Activation Assay System with [^125I]-cAMP (NEN SMP004, PerkinElmer Life Sciences Inc., Boston, Mass.), according to the manufacturers instructions. For the determination of β1 and β2 […], […] HEK-293 cell lines stably expressing cloned human, β1 and β2 receptors were grown to near confluency in DMEM supplemented with 10% FBS and Geneticin (500 μg/mL). For the determination β3 receptor agonist potency (EC50), CHO-K1 cell line stably expressing cloned human or β3 adrenergic receptors was grown to near confluency in Hams F-12 media supplemented with 10% FBS and Geneticin (250 μg/mL). Cells were rinsed with PBS and detached in dPBS (Dulbecco's Phosphate Buffered Saline, without CaCl2 and MgCl2) containing 2 mM EDTA or Trypsin-EDTA solution (0.05% trypsin/0.53 mM EDTA). After counting cells in Coulter cell counter, cells were pelleted by centrifugation at 1,000 rpm and re-suspended in stimulation buffer containing IBMX (PerkinElmer Kit) pre-warmed to room temperature to a concentration of 1.6×10^6 to 2.8×10^6 cells/mL. About 40,000 to 80,000 cells per well were used in this assay. Test compounds (10 mM in DMSO) were diluted into PBS containing 0.1% BSA in Beckman Biomek-2000 and tested at 11 different concentrations ranging from 100 μM to 1 pM. Reactions were incubated for 10 min at 37° C. and stopped by adding 100 μL of cold detection buffer containing [^125I]-cAMP (NEN SMP004, PerkinElmer Life Sciences, Boston, Mass.). The amount of cAMP produced (pmol/well) was calculated based on the counts observed for the samples and cAMP standards as described in the manufacturer's user manual. Data were analyzed by nonlinear regression analysis with the GraphPad Prism Software package (GraphPad Software, Inc., San Diego, Calif.) with the sigmoidal equation. The Cheng-Prusoff equation (Cheng Y, and Prusoff W H., Biochemical Pharmacology, 1973, 22, 23, 3099-108) was used to calculate the […] values.

[2] = biological target: T2, human β1 adrenergic receptor (Homo sapiens, UniProt P08588); assay: as above; type: cell-based; conditions: HEK-293 cells
T2 construct: expressed in transfected cells; host or cells: HEK-293
Method: as §1

[3] = biological target: T3, human β3 adrenergic receptor (Homo sapiens, UniProt P13945); assay: as above; type: cell-based; conditions: CHO-K1 cells
T3 construct: expressed in transfected cells; host or cells: CHO / CHO-K1
Method: as §1

[4] = biological target: T1, human β2 adrenergic receptor; assay: Radioligand binding assay for human β adrenergic receptors; conditions: [3H]-dihydroalprenolol 1 nM
Method: (§2) Human embryonic kidney (HEK-293) cell lines stably expressing cloned human β1 and β2 adrenergic receptors or Chinese hamster ovarian (CHO) cell lines stably expressing cloned human β3 adrenergic receptors were grown to near confluency in DMEM or Hams F-12 media with 10% FBS in the presence of 500 μg/mL Geneticin. The cell monolayer was lifted with 2 mM EDTA in PBS. Cells were pelleted by centrifugation at 1,000 rpm, and cell pellets were either stored frozen at −80° C. or membranes were prepared immediately for use. For preparation of β1 and β2 receptor expressing membranes, cell pellets were re-suspended in lysis buffer (10 mM HEPES/HCl, 10 mM EDTA, pH 7.4 at 4° C.) and homogenized using a tight-fitting Dounce glass homogenizer (30 strokes) on ice. […] The protein concentration of the membrane suspension was determined by the methods described in Lowry et al., 1951, Journal of Biological Chemistry, 193, 265; and Bradford, Analytical Biochemistry, 1976, 72, 248-54. […]
(§3) Binding assays were performed in 96-well microtiter plates in a total assay volume of 100 μL with 10-15 μg of membrane protein containing the human β1, β2 or β3 adrenergic receptors in assay buffer (75 mM Tris/HCl pH 7.4 at 25° C., 12.5 mM MgCl2, 1 mM EDTA, 0.2% BSA). […] Non-specific binding was determined in the presence of 10 μM propranolol. […] Filter plates were washed three times with filtration buffer (75 mM Tris/HCl pH 7.4 at 4° C., 12.5 mM MgCl2, 1 mM EDTA) to remove unbound radioactivity. The plates were then dried and 50 μL of Microscint-20 liquid scintillation fluid (Packard BioScience Co., Meriden, Conn.) was added and plates were counted in a Packard Topcount liquid scintillation counter (Packard BioScience Co., Meriden, Conn.). Binding data were analyzed by nonlinear regression analysis with the GraphPad Prism Software package (GraphPad Software, Inc., San Diego, Calif.) using the 3-parameter model for one-site competition. The curve minimum was fixed to the value for nonspecific binding, as determined in the presence of 10 μM propranolol. […]

[5] = biological target: T2, human β1 adrenergic receptor; assay: as above; conditions: [3H]-dihydroalprenolol 1 nM
Method: as §2, §3

[6] = biological target: T3, human β3 adrenergic receptor; assay: as above; conditions: [125I]-(−)-iodocyanopindolol 0.5 nM
Method: as §2, §3

T2 sequence (P08588 whole entry): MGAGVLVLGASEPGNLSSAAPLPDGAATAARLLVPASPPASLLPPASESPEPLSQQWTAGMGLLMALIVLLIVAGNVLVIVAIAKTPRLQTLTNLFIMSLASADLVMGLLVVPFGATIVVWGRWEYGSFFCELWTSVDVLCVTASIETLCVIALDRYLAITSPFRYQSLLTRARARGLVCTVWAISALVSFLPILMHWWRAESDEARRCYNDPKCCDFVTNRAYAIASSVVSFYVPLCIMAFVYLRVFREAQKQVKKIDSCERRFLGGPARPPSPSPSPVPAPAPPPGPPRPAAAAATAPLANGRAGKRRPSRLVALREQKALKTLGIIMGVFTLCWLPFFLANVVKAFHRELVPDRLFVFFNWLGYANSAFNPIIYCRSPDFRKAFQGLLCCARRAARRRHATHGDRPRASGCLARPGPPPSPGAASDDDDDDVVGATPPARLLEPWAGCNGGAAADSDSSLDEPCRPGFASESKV
T1 sequence (P07550 whole entry): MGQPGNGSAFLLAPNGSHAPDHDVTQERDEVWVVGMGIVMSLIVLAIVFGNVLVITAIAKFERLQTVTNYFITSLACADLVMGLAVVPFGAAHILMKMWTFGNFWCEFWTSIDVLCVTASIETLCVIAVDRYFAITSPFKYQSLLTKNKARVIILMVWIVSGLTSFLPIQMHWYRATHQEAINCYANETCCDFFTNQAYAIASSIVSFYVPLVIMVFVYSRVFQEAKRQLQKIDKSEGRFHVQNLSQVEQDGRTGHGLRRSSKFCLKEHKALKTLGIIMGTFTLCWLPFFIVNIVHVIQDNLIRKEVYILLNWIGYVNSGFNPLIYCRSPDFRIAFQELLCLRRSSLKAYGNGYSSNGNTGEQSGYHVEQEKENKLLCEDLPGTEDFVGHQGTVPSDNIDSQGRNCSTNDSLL
T3 sequence (P13945 whole entry): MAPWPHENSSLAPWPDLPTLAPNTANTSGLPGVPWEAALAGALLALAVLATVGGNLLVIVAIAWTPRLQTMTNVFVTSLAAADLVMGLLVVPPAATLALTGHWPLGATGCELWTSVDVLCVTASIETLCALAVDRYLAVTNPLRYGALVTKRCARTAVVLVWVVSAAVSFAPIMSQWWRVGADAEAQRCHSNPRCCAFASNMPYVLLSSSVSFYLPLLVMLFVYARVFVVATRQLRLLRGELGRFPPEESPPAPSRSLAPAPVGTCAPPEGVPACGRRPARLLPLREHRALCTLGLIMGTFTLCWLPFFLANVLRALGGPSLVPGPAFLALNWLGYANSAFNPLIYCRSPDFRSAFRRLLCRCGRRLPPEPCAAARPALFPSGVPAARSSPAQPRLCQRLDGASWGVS

pEC50 [1]: > 8.00
pEC50 [2]: ~7.52
pEC50 [3]: < 6.15
pKi [4]: > 8.00
pKi [5]: < 6.00
pKi [6]: < 6.00
Compound: Cc1cc(NC(=O)CCN2CCC(OC(=O)Nc3ccccc3-c3ccccc3)CC2)c(C)cc1CNC[C@H](O)c1ccc(O)c(NC=O)c1 [compound of formula I, biphenyl-2-ylcarbamic acid 1-[2-(4-{[(R)-2-(3-formylamino-4-hydroxyphenyl)-2-hydroxyethylamino]methyl}-2,5-dimethylphenylcarbamoyl)ethyl]-piperidin-4-yl ester]
